The structures appear in SMILES notation.

The test system of the first test is kokumi/umami taste. The test can be described thus: Evaluation of alkylpyridines: taste panel of 8 trained panelists, samples in 0.3% aqueous NaCl. The format is in vivo. To be noted: 10 ppm in 0.3% aqueous NaCl; scale 0 (no effect) to 10 (extremely strong kokumi/umami effect). The procedure: Alkylpyridines shown in the following table were prepared by firstly being diluted into propylene glycol solvent in order to provide a 10% solution of the alkylpyridine. Each solution was then diluted using a 0.3% aqueous solution of NaCl, heated if necessary to achieve better dissolution, to a concentration of between 10 ppm and 30 ppm of the alkylpyridine. The samples were then stored at ambient temperature.
A panel consisting of 8 trained panelists evaluated the samples for taste properties on a scale of 0 to 10 where 0 denoted no kokumi/umami effect and 10 denoted extremely strong kokumi/umami effect.
Take `CCc1ccccn1` [2-Ethylpyridine, reference compound]: the Kokumi/Umami taste intensity came to 0.

With `CCCCCCc1ccccn1` [2-Hexylpyridine], the Kokumi/Umami taste intensity is reported as 7.

With `CCCc1ccccn1` [2-Propylpyridine, reference compound], the Kokumi/Umami taste intensity worked out at 0.

On to `CCCCCCCc1ccccn1` [Compound of ex. 1, 2-heptylpyridine], for which the Kokumi/Umami taste intensity worked out at 7.

`CCCCCCCCc1ccccn1` [Compound of ex. 2, 2-octylpyridine] had a Kokumi/Umami taste intensity of 2.

`CCCCCCCCCc1ccccn1` [Compound of ex. 3, 2-nonylpyridine]: the Kokumi/Umami taste intensity stood at 1.

With `CCCCCCCCCCCc1ccccn1` [Compound of ex. 4, 2-undecylpyridine], the Kokumi/Umami taste intensity stood at 0.

For the compound `CCCCCCCCCCCCc1ccccn1` [Compound of ex. 5, 2-dodecylpyridine], the Kokumi/Umami taste intensity is 0.

In the case of `CCCCCc1cc(C)ccn1` [Compound of ex. 6, 4-methyl-2-pentylpyridine], the Kokumi/Umami taste intensity is on record as 0.

The same test, now with this note: 20 ppm in 0.3% aqueous NaCl; scale 0 (no effect) to 10 (extremely strong kokumi/umami effect).
Compound `Cc1ccccn1` [2-picoline, reference compound] had a Kokumi/Umami taste intensity of 0.

The same test, now with this note: 30 ppm in 0.3% aqueous NaCl; scale 0 (no effect) to 10 (extremely strong kokumi/umami effect).
On to `c1ccncc1` [Pyridine, reference compound], for which the Kokumi/Umami taste intensity is 0.

The values above are taken from US20110020518A1, “TASTE MODIFYING PRODUCT” (priority 2008, published 2011).
